What was measured:
Type in all cases: cell-based, human
OVCAR8 cells = assay: In vitro phagocytosis assay of OVCAR8 cells by PBMC-derived M2 macrophages; conditions: OVCAR8; bestatin 20 μM, tosedostat 20 μM, ARM1 2 μM; vs DMSO
Excerpt: Macrophage Generation and Stimulation: Primary human donor-derived macrophages were generated as described previously (Martinez, Curr Protocol Immunol 2012, Chapter 14:14.28.1-14.28.23). In brief, Leukopaks from anonymous donors were obtained from the Rhode Island Blood (Providence, RI) and peripheral blood […] (PBMCs) were isolated by density gradients centrifugation using Ficoll Paque Plus (Sigma-Aldrich, Cat #17-1440-02) followed by RBC lysis using RBC lysis buffer (eBioscience, Cat #00-4333-57). For monocyte isolation, PBMCs were incubated in Monocyte Attachment Medium (Sigma-Aldrich, Cat #C-28051) for 1 hour at 37° C. and 5% CO2 and then washed three times in Iscove's Modified Dulbecco's Medium (IMDM) (Gibco, Cat #12440053) to remove non-adherent cells. The remaining monocytes were detached and seeded in 96-well plates and cultured at 37° C. and 5% CO2 in IMDM supplemented with 10% FBS (Atlanta Biologicals, Cat #S11550) and 20 ng/ml recombinant human M-CSF (Peprotech, Cat #AF-300-25). After 4 days monocytes were then treated with 20 ng/ml recombinant human IL-4 (Peprotech, Cat #200-04) and 10 ng/mL recombinant human IL-10 (PeproTech, Cat #200-10) for another 3-4 days to obtain M2 polarized macrophages. Macrophage differentiation was confirmed morphologically using microscopy. M2-macrophage polarization was confirmed by immunophenotyping of the M2 marker CD206 using PE-conjugated anti-human anti-CD206 antibody (BioLegend, Cat #321106, clone 15-2, 1:100 dilution). In vitro Phagocytosis Assays: To facilitate the quantification of phagocytic events, we adapted a microscopy-based fluorescence phagocytosis […] al., J Immunol Methods 2009, 342(1-2):71-7; Lindner et al., Biotechniques 2020, 68(5):245-250) for use with a Celigo imaging cytometer. […] Cells were incubated with pHrodo Red, SE (Invitrogen, Cat #P36600) on ice for 30 min and then co-cultured with PBMC-derived M2 macrophages (prepared as described above) at a ratio of 1:2 (OVCAR8/B cells: macrophages) for 2 hours in a humidified 5% CO2 incubator at 37° C. Phagocytic events were quantified by counting the number of red fluorescent (pHrodo+) cells per well using a Celigo Imaging Cytometer (Nexcelom). EmGFP was used for the visualization of cancer cells in imaging Phagocytic events were also quantified using a previously-described flow cytometry-based assay (Barkal et al., Nature 2019, 572(7769):392-396; […] et al., Biomedicines 2022, 10(5):1175). In brief, M2 macrophages co-cultured with OVCAR8/EmGFP-luc cells were detached using TrypLE Express (GibcoTM, cat #12604013), stained with APC anti-human CD11b clone ICRF44 (BioLegend, Cat #982604) and analyzed by flow cytometry (BioRad ZE5). Double-positive EmGFP+CD11b+ cells were considered phagocytic events.

[1] = tested on: CD24 cell surface expression in OVCAR8 cells; assay: CD24 flow cytometry analysis in OVCAR8 cells; conditions: OVCAR8; 3 days; bestatin 10 or 20 μM, tosedostat 5 or 10 μM, ARM1 1 or 2 μM; vs DMSO
Experimental: (§1) Flow Cytometry Analysis: For cell surface protein staining, 1×10^5-1×10^6 cells were first incubated with Fc receptor blocking solution, Human TruStain FcXTM (BioLegend, Cat #422301) for 10 minutes at room temperature. Cells were washed once in FACS buffer (1×PBS, 1.0% bovine serum albumin (BSA) (Sigma) and 0.2% sodium azide (Sigma), and then incubated with antibodies (given below) for 30 minutes at 4° C. in the dark. Cells were also stained with 7-AAD (Biolegend, Cat #420404) for dead cell exclusion, and flow cytometry analysis was performed using a Bio-Rad ZE5 Cell Analyzer. Following antibodies used in this study (all antibodies were used at 1:50 dilution unless otherwise noted): APC anti-human CD24 (BioLegend, Cat #311118, clone ML5), PE anti-human CD24 (eBioscience, Cat #12-0247-42, clone SN3), APC anti-human CD47 (BioLegend, Cat #323124, clone CC2C6), APC anti-human § 2-microglobulin (BioLegend, Cat #395711, clone […]), PE anti-human HLA-A2 (MHC-class I) (BioLegend, Cat #343305, clone BB7.2), APC anti-human CD11b (BioLegend, Cat #982604, clone ICRF44), APC anti-mouse F4/80 antibody (BioLegend, Cat #123116, clone BM8), APC-streptavidin (Thermo Fisher Scientific, Cat #SA1005, 1:100 dilution), PE anti-Calreticulin (Invitrogen, Catalog #MA5-15382, 1:200 dilution). For intracellular staining, cells were fixed with 1% paraformaldehyde for 5 min and permeabilized using the True-Nuclear Transcription Factor Buffer Set (BioLegend, Cat #424401) before the addition of the antibody. Small Molecule Inhibitor and Drug Treatments: OVCAR8 or SKOV3 cells were treated for 3 days with bestatin (Ubenimex) (SelleckChem, Cat #S1591) at 5, 10 or 20 μM (as indicated in the figure legends), Tosedostat (Medchem Express, Cat #HY-14807) at 5 μM or 10 μM (as indicated in the figure legends) or ARM-1 (Medchem Express, Cat #HY-W027340) at 1, or 2 μM (as indicated in the figure legends). Inhibitors were replenished every 24 hours. DMSO (Sigma Aldrich, Cat #D8418) was used as a vehicle. OVCAR8 cells were treated with Docetaxel (SelleckChem, Cat #S1148) at 100 nM or Carboplatin (SelleckChem, Cat #S1215 at 100 nM or Doxorubicin (SelleckChem, Cat #E2516) at 50 nM for 12 hours.

[2] = tested on: CALR cell surface expression in OVCAR8 cells; assay: Flow cytometry analysis of Calreticulin (CALR) in OVCAR8 cells; conditions: OVCAR8, 12 hours; docetaxel 100 nM, carboplatin 100 nM, doxorubicin 50 nM; vs DMSO (FIG. 11A)
Experimental: as §1, with “OVCAR8 cells were treated with Docetaxel (SelleckChem, Cat #S1148) at 100 nM or Carboplatin (SelleckChem, Cat #S1215 at 100 nM or Doxorubicin (SelleckChem, Cat #E2516) at 50 nM for 12 hours.” left out

SMILES | macrophage-mediated phagocytosis (OVCAR8 cells) | CD24 cell surface expression (MFI) [1] | CALR cell surface expression [2]
Nc1nc(-c2ccc(Cc3ccccc3)cc2)cs1 [ARM1] | increased | decreased | 
N.N.O=C([O-])C1(C(=O)[O-])CCC1.[Pt+2] [carboplatin] |  |  | did not
CC(=O)O[C@@]12CO[C@@H]1C[C@H](O)[C@@]1(C)C(=O)[C@H](O)C3=C(C)[C@@H](OC(=O)[C@H](O)[C@@H](NC(=O)OC(C)(C)C)c4ccccc4)C[C@@](O)([C@@H](OC(=O)c4ccccc4)[C@H]21)C3(C)C [docetaxel] |  |  | induced robust
COc1cccc2c1C(=O)c1c(O)c3c(c(O)c1C2=O)C[C@@](O)(C(=O)CO)C[C@@H]3O[C@H]1C[C@H](N)[C@H](O)[C@H](C)O1 [doxorubicin] |  |  | did not
